Consider eight compounds from patent publication US20220380368A1, “SPIROCYCLIC ANDROGEN RECEPTOR PROTEIN DEGRADERS” (THE REGENTS OF THE UNIVERSITY OF MICHIGAN, priority 2019, published 2022).

One data set deals with T1, AR protein (Homo sapiens, UniProt P10275).
T1 construct: endogenous in cells; host or cells: VCaP
T1 sequence (P10275 1-920): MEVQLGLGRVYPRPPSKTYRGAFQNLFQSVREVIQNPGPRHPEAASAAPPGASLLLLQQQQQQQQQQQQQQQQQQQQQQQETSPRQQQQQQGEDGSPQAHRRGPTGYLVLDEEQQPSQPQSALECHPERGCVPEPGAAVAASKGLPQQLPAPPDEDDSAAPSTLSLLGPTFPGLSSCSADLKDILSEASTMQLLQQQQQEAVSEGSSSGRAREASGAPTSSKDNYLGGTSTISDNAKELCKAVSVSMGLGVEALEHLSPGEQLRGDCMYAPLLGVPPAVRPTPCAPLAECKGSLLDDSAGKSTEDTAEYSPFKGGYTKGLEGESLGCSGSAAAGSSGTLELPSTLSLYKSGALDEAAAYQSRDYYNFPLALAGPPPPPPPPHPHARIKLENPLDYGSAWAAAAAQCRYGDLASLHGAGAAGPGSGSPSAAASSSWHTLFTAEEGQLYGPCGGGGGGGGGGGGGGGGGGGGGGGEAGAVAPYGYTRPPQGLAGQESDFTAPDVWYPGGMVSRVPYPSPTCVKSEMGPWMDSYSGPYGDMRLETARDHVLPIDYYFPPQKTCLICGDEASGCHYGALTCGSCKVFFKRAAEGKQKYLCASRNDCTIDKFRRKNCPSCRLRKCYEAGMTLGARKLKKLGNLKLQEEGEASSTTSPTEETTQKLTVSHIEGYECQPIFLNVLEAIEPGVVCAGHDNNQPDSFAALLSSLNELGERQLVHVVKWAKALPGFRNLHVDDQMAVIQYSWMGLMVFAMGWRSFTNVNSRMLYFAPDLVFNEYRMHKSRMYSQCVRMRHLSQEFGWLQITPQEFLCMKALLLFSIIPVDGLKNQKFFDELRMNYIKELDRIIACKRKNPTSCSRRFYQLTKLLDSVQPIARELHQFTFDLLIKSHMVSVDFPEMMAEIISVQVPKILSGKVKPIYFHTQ
The data set can be described thus: Western blotting analysis of AR protein levels in VCaP cells, band quantification, DC50/DC90. To be noted: VCaP cells, Table 6; read-out: VCaP DC50. The format is cell-based. Here is the method:
The appropriate cell line, e.g., prostate cancer LNCaP, Vcap, or 22RV1 cell line, was treated with Compounds of the Disclosure as indicated. The treated cells were lysed with RIPA buffer. […] GAPDH was used as a loading control.
Bands were quantified with ImageJ software. The relative numbers of each band obtained from normalization with its corresponding GAPDH level were compared with Prism 8 software. The DC50 values were produced from Prism 8, and the DC90 values were calculated with an equation=Bottom+(Top−Bottom)/(1+10^((Log EC50−X)*HillSlope) based on DC50 and Hillslope values.

Data set [1] is described as follows: Mouse PK studies after oral and IV dosing. The format is in vivo. To be noted: for F: PO 3 mg/kg vs IV 1 mg/kg; for AUC(0-t) / clearance / half-life / Vd / Cmax / Tmax: in vivo; for clearance: read-out: IV Cl (converted); for Vd: read-out: IV VSS. Here is the method:
The pharmacokinetics of representative Compounds of the Disclosure were determined after oral and IV dosing at the concentrations indicated in mouse (Table 7). […] The vehicles used in these studies are either (i) 10% PEG400+90% PBS (adjusted to pH to 8.0 by 0.5 N NaOH); or (ii) 100% PEG200.

[2] abbreviates: iv, 1 mg/kg, IV, dose 1 mg/kg, read-out: IV AUC(0 − t).
Where [3] appears, read: iv, 1 mg/kg, IV, dose 1 mg/kg, read-out: IV T1/2 (converted).
Where [4] appears, read: po, 3 mg/kg, PO, dose 3 mg/kg, read-out: PO AUC(0 − t).
Where [5] appears, read: po, 3 mg/kg, PO, dose 3 mg/kg, read-out: PO T1/2 (converted).

Like-named read-outs stand apart in the source and are kept apart here.

Take `C[C@H]1CC2(CCN(c3ccc(C(=O)N4CCN(CC5CN(c6ccc7c(c6)C(=O)N(C6CCC(=O)NC6=O)C7=O)C5)CC4)nn3)CC2)CN1c1ccc(C#N)c(Cl)c1` (stereo partly drawn) [Cpd. No. 484, 2-chloro-4-((3S)-8-(6-(4-((1-(2-(2,6-dioxopiperidin-3-yl)-1,3-dioxoisoindolin-5-yl)azetidin-3-yl)methyl)piperazine-1-carbonyl)pyridazin-3-yl)-3-methyl-2,8-diazaspiro[4.5]decan-2-yl)benzonitrile]: the DC50 on AR protein lay in the range of 1 to 10 nM. Also, in data set [1], the F worked out at 46%. Moreover, the figures for the AUC(0-t) in data set [1] (setting [2]) and in data set [1] (setting [4]) were 7770 ng·h/mL and 10600 ng·h/mL, respectively. Besides, in data set [1] (iv, 1 mg/kg, IV, dose 1 mg/kg), the clearance is 2 mL/min/kg. Moreover, the half-life was 6.1 h in data set [1] (setting [3]) and 4.5 h in data set [1] (setting [5]). The Vd in data set [1] (iv, 1 mg/kg, IV, dose 1 mg/kg) came out at 0.62 L/kg. This compound returned a Cmax in data set [1] (po, 3 mg/kg) of 2380 ng/mL. Also, the Tmax in data set [1] (po, 3 mg/kg) turned out to be 1.3 h.
As to `C[C@H]1CC2(CCN(c3ccc(C(=O)N4CCN(CC5CN(c6cc7c(cc6F)C(=O)N(C6CCC(=O)NC6=O)C7=O)C5)CC4)nn3)CC2)CN1c1ccc(C#N)c(Cl)c1` (stereo partly drawn) [Cpd. No. 485, 2-chloro-4-((3S)-8-(6-(4-((1-(2-(2,6-dioxopiperidin-3-yl)-6-fluoro-1,3-dioxoisoindolin-5-yl)azetidin-3-yl)methyl)piperazine-1-carbonyl)pyridazin-3-yl)-3-methyl-2,8-diazaspiro[4.5]decan-2-yl)benzonitrile], on AR protein, the DC50 lay within 1 to 10 nM. This compound registered a F in data set [1] of 73%. Moreover, the AUC(0-t) in data set [1] (setting [2]) amounted to 2350 ng·h/mL. In data set [1] (iv, 1 mg/kg, IV, dose 1 mg/kg), the clearance was 6.5 mL/min/kg and the Vd was 2.95 L/kg. In addition, the half-life in data set [1] (setting [3]) was 9.8 h. Besides, in data set [1] (po, 3 mg/kg), the Cmax amounted to 1100 ng/mL and the Tmax stood at 1 h. In addition, the AUC(0-t) in data set [1] (setting [4]) was 5150 ng·h/mL. Further, in data set [1] (setting [5]), the half-life was 7.2 h.
Regarding `C[C@H]1CC2(CCN(c3cnc(C(=O)N4CCN(CC5CN(c6cc7c(cc6F)C(=O)N(C6CCC(=O)NC6=O)C7=O)C5)CC4)cn3)CC2)CN1c1ccc(C#N)c(Cl)c1` (stereo partly drawn) [Cpd. No. 488, 2-chloro-4-((3S)-8-(5-(4-((1-(2-(2,6-dioxopiperidin-3-yl)-6-fluoro-1,3-dioxoisoindolin-5-yl)azetidin-3-yl)methyl)piperazine-1-carbonyl)pyrazin-2-yl)-3-methyl-2,8-diazaspiro[4.5]decan-2-yl)benzonitrile], the DC50 on AR protein lay in the range of 1 to 10 nM. Besides, in data set [1], the F worked out at 31%. Also, the AUC(0-t) in data set [1] (setting [2]) was determined as 233 ng·h/mL. For the same compound, in data set [1] (iv, 1 mg/kg, IV, dose 1 mg/kg), the clearance was 70.2 mL/min/kg and the Vd turned out to be 7.75 L/kg. Besides, the half-life in data set [1] (setting [3]) was 5 h. In addition, in data set [1] (po, 3 mg/kg), the Cmax came out at 99.6 ng/mL and the Tmax is 1 h. Further, the AUC(0-t) in data set [1] (setting [4]) turned out to be 213 ng·h/mL. For the same compound, the half-life in data set [1] (setting [5]) was 3.1 h.
As to `C[C@H]1CC2(CCN(c3ccc(C(=O)N4CCC(CN5CCN(c6ccc7c(c6)C(=O)N(C6CCC(=O)NC6=O)C7=O)CC5)CC4)nn3)CC2)CN1c1ccc(C#N)c(Cl)c1` (stereo partly drawn) [Cpd. No. 489, 2-chloro-4-((3S)-8-(6-(4-((4-(2-(2,6-dioxopiperidin-3-yl)-1,3-dioxoisoindolin-5-yl)piperazin-1-yl)methyl)piperidine-1-carbonyl)pyridazin-3-yl)-3-methyl-2,8-diazaspiro[4.5]decan-2-yl)benzonitrile], the DC50 on AR protein fell in the range of 1 to 10 nM. Besides, the F in data set [1] was found to be 37%. For the same compound, the AUC(0-t) in data set [1] (setting [2]) worked out at 2140 ng·h/mL. Also, in data set [1] (iv, 1 mg/kg, IV, dose 1 mg/kg), the clearance was 7.33 mL/min/kg and the Vd was 2.72 L/kg. For the same compound, the half-life in data set [1] (setting [3]) is 7.45 h. In data set [1] (po, 3 mg/kg), the maximum concentration (Cmax) was 477 ng/mL and the Tmax was 1 h. For the same compound, the AUC(0-t) in data set [1] (setting [4]) was 2390 ng·h/mL. In addition, in data set [1] (setting [5]), the half-life is 7.5 h.
On to `C[C@H]1CC2(CCN(c3ccc(C(=O)N4CCC(CN5CCN(c6cc7c(cc6F)C(=O)N(C6CCC(=O)NC6=O)C7=O)CC5)CC4)nn3)CC2)CN1c1ccc(C#N)c(Cl)c1` (stereo partly drawn) [Cpd. No. 490, 2-chloro-4-((3S)-8-(6-(4-((4-(2-(2,6-dioxopiperidin-3-yl)-6-fluoro-1,3-dioxoisoindolin-5-yl)piperazin-1-yl)methyl)piperidine-1-carbonyl)pyridazin-3-yl)-3-methyl-2,8-diazaspiro[4.5]decan-2-yl)benzonitrile], for which the DC50 at AR protein fell in the range of 1 to 10 nM. The same compound had a F in data set [1] of 25%. In data set [1] (setting [2]), the AUC(0-t) is 4920 ng·h/mL. In data set [1] (iv, 1 mg/kg, IV, dose 1 mg/kg), the clearance is 3 mL/min/kg and the Vd was 1.74 L/kg. Further, the half-life in data set [1] (setting [3]) is 8.7 h. In addition, in data set [1] (po, 3 mg/kg), the Cmax turned out to be 639 ng/mL and the Tmax is 1 h. Also, the AUC(0-t) in data set [1] (setting [4]) came out at 3730 ng·h/mL. Besides, the half-life in data set [1] (setting [5]) is 7.1 h.
In the case of `C[C@H]1CC2(CCN(c3ccc(C(=O)N4CCN(CC5CCN(c6ccc7c(c6)C(=O)N(C6CCC(=O)NC6=O)C7=O)CC5)CC4)nn3)CC2)CN1c1ccc(C#N)c(Cl)c1` (stereo partly drawn) [Cpd. No. 491, 2-chloro-4-((3S)-8-(6-(4-((1-(2-(2,6-dioxopiperidin-3-yl)-1,3-dioxoisoindolin-5-yl)piperidin-4-yl)methyl)piperazine-1-carbonyl)pyridazin-3-yl)-3-methyl-2,8-diazaspiro[4.5]decan-2-yl)benzonitrile], the DC50 on AR protein was 1 to 10 nM. In data set [1], this compound registered an F of 34%. Besides, the results for the AUC(0-t) in data set [1] (setting [2]) and in data set [1] (setting [4]) were 2640 ng·h/mL and 2710 ng·h/mL, respectively. The clearance in data set [1] (iv, 1 mg/kg, IV, dose 1 mg/kg) is 6 mL/min/kg. Also, the half-life in data set [1] (setting [3]) was 7.7 h; in data set [1] (setting [5]) it was 5.7 h. Besides, the Vd in data set [1] (iv, 1 mg/kg, IV, dose 1 mg/kg) was 2.09 L/kg. Moreover, in data set [1] (po, 3 mg/kg), the concentration peaked (Cmax) at 789 ng/mL. In data set [1] (po, 3 mg/kg), the Tmax amounted to 1 h.
For the compound `C[C@H]1CC2(CCN(c3cnc(C(=O)N4CCC(CN5CCN(c6ccc7c(c6)C(=O)N(C6CCC(=O)NC6=O)C7=O)CC5)CC4)cn3)CC2)CN1c1ccc(C#N)c(Cl)c1` (stereo partly drawn) [Cpd. No. 492, 2-chloro-4-((3S)-8-(5-(4-((4-(2-(2,6-dioxopiperidin-3-yl)-1,3-dioxoisoindolin-5-yl)piperazin-1-yl)methyl)piperidine-1-carbonyl)pyrazin-2-yl)-3-methyl-2,8-diazaspiro[4.5]decan-2-yl)benzonitrile], the DC50 on AR protein was in the range of 1 to 10 nM. In data set [1], this compound yielded an F of 15%. Further, in data set [1] (setting [2]), the AUC(0-t) was 277 ng·h/mL. In data set [1] (iv, 1 mg/kg, IV, dose 1 mg/kg), the clearance is 54.5 mL/min/kg and the Vd was found to be 7.71 L/kg. Also, the half-life in data set [1] (setting [3]) was 3.3 h. Also, in data set [1] (po, 3 mg/kg), the concentration peaked (Cmax) at 59 ng/mL and the Tmax was 0.5 h. In data set [1] (setting [4]), the AUC(0-t) amounted to 123 ng·h/mL. Also, in data set [1] (setting [5]), the half-life is 2.1 h.
Regarding `C[C@H]1CC2(CCN(c3cnc(C(=O)N4CCC(CN5CCN(c6cc7c(cc6F)C(=O)N(C6CCC(=O)NC6=O)C7=O)CC5)CC4)cn3)CC2)CN1c1ccc(C#N)c(Cl)c1` (stereo partly drawn) [Cpd. No. 493, 2-chloro-4-((3S)-8-(5-(4-((4-(2-(2,6-dioxopiperidin-3-yl)-6-fluoro-1,3-dioxoisoindolin-5-yl)piperazin-1-yl)methyl)piperidine-1-carbonyl)pyrazin-2-yl)-3-methyl-2,8-diazaspiro[4.5]decan-2-yl)benzonitrile], the DC50 at AR protein lay within 1 to 10 nM. For the same compound, the F in data set [1] was 25%. In addition, the AUC(0-t) in data set [1] (setting [2]) came out at 840 ng·h/mL; in data set [1] (setting [4]) it was 627 ng·h/mL. The clearance in data set [1] (iv, 1 mg/kg, IV, dose 1 mg/kg) was 20.3 mL/min/kg. For the same compound, the half-life in data set [1] (setting [3]) is 4.9 h; in data set [1] (setting [5]), 4.8 h. For the same compound, the Vd in data set [1] (iv, 1 mg/kg, IV, dose 1 mg/kg) was determined as 4.12 L/kg. Moreover, the concentration in data set [1] (po, 3 mg/kg) peaked (Cmax) at 224 ng/mL. For the same compound, the Tmax in data set [1] (po, 3 mg/kg) was 0.7 h.
